Key:
[1] = test system: Stomach (Rattus norvegicus); assay: Gastrointestinal toxicity in rat gastric mucosa assessed as ulcerogenic activity-related malonaldehyde level per 100 mg of tissue administered orally at dose equivalent to 210 mg/kg ibuprofen (RVb = 3.26 nmol); details: in vivo, po
Rattus norvegicus [2] = assay: Gastrointestinal toxicity in rat assessed as ulcerogenic index administered orally at dose equivalent to 210 mg/kg ibuprofen; format: organism-based; set-up: dose 210 mg/kg, route oral; details: in vivo, po
Rattus norvegicus [3] = assay: Antiinflammatory activity in rat assessed as inhibition of carrageenan-induced paw edema administered orally at dose equivalent to 70 mg/kg ibuprofen after 4 hrs; format: functional; details: route oral
Mus musculus = assay: Analgesic activity in po dosed mouse assessed as decrease in tail flick tendency after 4 hrs by tail flick test; format: functional
Rattus norvegicus [4] = assay: Hepatotoxicity in po dosed rat assessed as effect on serum SGOT level (reference value: 143.71 +/- 1.1 U/mL); format: toxicity, organism-based; details: in vivo
Rattus norvegicus [5] = assay: Hepatotoxicity in po dosed rat assessed as effect on serum alkaline phosphatase level (reference value: 12.17 +/- 0.16 U/mL); format: toxicity, organism-based; details: in vivo
Liver [6] = assay: Hepatotoxicity in po dosed rat liver assessed as effect on hepatocyte morphological changes by histopathological analysis; format: toxicity, organism-based; details: hepatocytes
Rattus norvegicus [7] = assay: Hepatotoxicity in po dosed rat assessed as effect on serum SGPT level (reference value: 32.46 +/- 0.76 U/mL); format: toxicity, organism-based; details: in vivo
Rattus norvegicus [8] = assay: Hepatotoxicity in po dosed rat assessed as effect on total albumin level (reference value: 1.63 +/- 0.02 g/dl); format: toxicity, organism-based; details: in vivo
Rattus norvegicus [9] = assay: Hepatotoxicity in po dosed rat assessed as effect on total serum protein level (reference value: 1.72+/- 0.02 g/dl); format: toxicity, organism-based; details: in vivo
Rattus norvegicus [10] = assay: Antiinflammatory activity in rat assessed as inhibition of carrageenan-induced paw edema at 70 mg/kg, po after 4 hrs; format: functional
Rattus norvegicus [11] = assay: Gastrointestinal toxicity in rat assessed as ulcerogenic index at 210 mg/kg, po; format: organism-based; set-up: dose 210 mg/kg, route oral; details: in vivo
Liver [12] = assay: Gastrointestinal toxicity in rat liver assessed as ulcerogenic activity-related malonaldehyde level per 100 mg of tissue at 210 mg/kg, po (RVb = 3.26 nmol); format: organism-based; set-up: dose 210 mg/kg, route oral; details: in vivo

SMILES	Activity [1]	UI (Rattus norvegicus [2])	inhibition in vivo (Rattus norvegicus [3])	inhibition (INH) (Mus musculus)	Activity (Rattus norvegicus [4])	Activity (Rattus norvegicus [5])	Activity (Liver [6])	Activity (Rattus norvegicus [7])	Activity (Rattus norvegicus [8])	Activity (Rattus norvegicus [9])	inhibition in vivo at 70 mg/kg (Rattus norvegicus [10])	UI (Rattus norvegicus [11])	Activity (Liver [12])
c1ccc(-c2nn3c(-c4ccncc4)nnc3s2)cc1	5.78 nmol	0.666	66.4%	56.06%									
Clc1ccccc1-c1nn2c(-c3ccncc3)nnc2s1	8.8 nmol	1.417	45.4%	37.27%									
Clc1ccc(-c2nn3c(-c4ccncc4)nnc3s2)c(Cl)c1	6.71 nmol	0.75	69.3%	61.81%									
Cc1ccccc1-c1nn2c(-c3ccncc3)nnc2s1	4.16 nmol	0.471	79.8%	62.54%									
CC(=O)Oc1ccccc1-c1nn2c(-c3ccncc3)nnc2s1	8.82 nmol	2.25	39.8%	25%									
c1ccc(Oc2nn3c(-c4ccncc4)nnc3s2)cc1	7.32 nmol	1.5	63.5%	52.27%									
O=[N+]([O-])c1ccc(-c2nn3c(-c4ccncc4)nnc3s2)cc1	3.47 nmol	0.324	86.3%	74.32%	138.32 U/ml	12.76 U/ml	Non-toxic	29.34 U/ml	1.77 g/dL	1.78 g/dL			
Clc1ccccc1-c1nnc(-c2ccncc2)o1	8.11 nmol	2	37.7%	29.54%									
Clc1ccc(-c2nnc(-c3ccncc3)o2)c(Cl)c1	3.29 nmol	0.386	84%	70.37%	136.24 U/ml	13.79 U/ml	Non-toxic	28.67 U/ml	1.72 g/dL	1.76 g/dL			
Cc1ccccc1-c1nnc(-c2ccncc2)o1	7.33 nmol	2.266	43.4%	31.81%									
CC(=O)Oc1ccccc1-c1nnc(-c2ccncc2)o1	5.19 nmol	0.831	63.4%	57.57%									
c1ccc(Oc2nnc(-c3ccncc3)o2)cc1	3.33 nmol	0.731	71.2%	62.14%									
O=[N+]([O-])c1ccc(-c2nnc(-c3ccncc3)o2)cc1	6.85 nmol	1.762	54%	44.05%									
c1ccc(-c2nnc(-c3ccncc3)o2)cc1		1.667	82.6%	68.21%									
Sc1nnc(-c2ccncc2)o1	5.78 nmol	1.327	62.9%	54.28%									
CC(C)Cc1ccc(C(C)C(=O)O)cc1 (stereo not drawn) [IBUPROFEN]				73.52%	140.14 U/ml	11.67 U/ml		34.26 U/ml	1.71 g/dL	1.74 g/dL	82.7%	2.315	7.51 nmol
NNC(=O)c1ccncc1 [ISONIAZID]		3.75	51.6%	45.9%	151.25 U/ml	8.31 U/ml		40.21 U/ml	1.48 g/dL	1.55 g/dL			

From ChEMBL document CHEMBL1208787 (Bioorg Med Chem Lett, 2010)
